Assays:
[1] = system: luciferase-tagged KP cells transplanted into immunocompetent recipient mice; assay: Orthotopic lung tumor model, survival and bioluminescence imaging; format: in vivo, mouse
Description: FIG. 6: Imaging bortezomib response and resistance in an orthotopic lung tumor model. (6A) experimental design. Lung cancer cells derived from KP tumors were infected with a retrovirus expressing luciferase and transplanted into immunocompetent recipient mice by tail vein injection. (6B) Kaplan-Meier survival curve of control and bortezomib-treated recipient mice (n=6; P=1.4×10−5). A total of 10,000 cells were transplanted, and treatment started after 35 days. (6C) representative bioluminescence imaging of recipient mice (n=6) treated with vehicle control or bortezomib, as in 6B. D0 refers to the first treatment. Arrows indicate weekly bortezomib regimen.
(§1) FIG. 7: The NF-κB inhibitor Bay-117082 leads to lung tumor regression in vivo. (7A) quantitative PCR analysis of NF-κB target gene expression in KP cells treated with 10 μM Bay-117082 for indicated hours. Error bars are SD (n=3). (7B) Bay-117082 treatment leads to lung tumor regression and delays tumor progression in the orthotopic lung tumor model. A total of 50,000 luciferase-tagged KP cells were transplanted into recipient mice (n=6), and treatment was started at 19 days after transplantation (set at D0). Mice were treated with vehicle control or 10 mg/kg Bay-117082 by i.p. injection, and imaged at the indicated time points. Arrows indicate Bay-117082 injections. (7C) Bay-117082 prolongs survival in the KP model (n=6; P=0.008). “i.p. dosing” indicates treatment with 3 doses per week.
At indicated time points, mice were scanned for 15 min under isoflurane anesthesia, using a small animal eXplore Locus microCT (GE Healthcare) at 45-μm resolution, 80 kV, with 450-mA current (47). Images were acquired and processed using GE eXplore software. Bioluminescence imaging was performed as previously described (48). Mice were imaged for 60 seconds, and signals in the lung were quantified using Xenogen software.
To facilitate imaging of the bortezomib treatment response, we adapted a transplantation-based orthotopic lung cancer mouse model (37). As outlined in FIG. 6A, we infected KP cell lines with a retrovirus expressing firefly luciferase. The cells were transplanted into immunocompetent recipient mice by i.v. injection, resulting in the development of in situ lung tumors that could be imaged and quantified by bioluminescence imaging.
To determine whether bortezomib therapy was effective in the orthotopic model, we transplanted 10,000 KP cells into host mice and treated the mice 5 weeks later, either with control or with a weekly 4-dose regimen of bortezomib (37).

KP and KP^M cell lines = assay: Cell viability assay (Cell Titer Aqueous Kit); format: cell-based, mouse; conditions: KP cell lines, increasing doses of Bay-117082, 48 hours
Protocol: FIG. 2: Bortezomib sensitivity correlates with basal NF-κB activity in KP lung adenocarcinoma cell lines. […] 3TZ, diamond; LKR13, triangle; KP, solid lines; KPM, dashed lines. Error bars are SD (n=3). (2B) lung cancer cell lines with high basal NF-κB activity were sensitive to bortezomib. NF-κB p65 DNA-binding activity was determined by ELISA from nuclear extracts of KP cell lines and LKR13 cells (set as 1). Relative viability was measured after 5 nM bortezomib treatment, as in 2A. FIG. 17: Bay-117082 induces cell death In KP cells. […] (17B) Bay-117082 induces apoptosis in KP cells. Cells were treated with 10IJM Bay-117082 for 48 hours. […] Cell culture conditions were as described recently (30).

KP mice = assay: Kaplan-Meier survival of KP mice; format: in vivo, mouse; conditions: KP mice 8 weeks post Adeno-Cre, Bay-117082 10 mg/kg i.p. 3 times per week for 4 weeks; control 79.0±13.2 days; P=0.008
Protocol: (5A and 5B) Kaplan-Meier survival curve of vehicle control and bortezomib-treated KP (5A) and K (5B) mice. Arrows indicate weekly 1 mg/kg bortezomib regimen. […] Arrows indicate bortezomib injection.
To initiate lung tumors, cohorts of K or KP mice of 129svJae background were infected with 2.5×10^7 plaque-forming units of Adeno-Cre (University of Iowa) by intranasal inhalation, as described previously (2, 28). Mice were given bortezomib (LC Labs) in PBS [0.5% dimethylsulfoxide (DMSO)] at 1 mg/kg body weight i.v., as indicated.
To analyze the long-term effects of bortezomib therapy, we investigated whether a 4-dose regimen of bortezomib (19) could prolong survival of tumor-bearing mice. Using a cohort of KP mice, we treated tumor-bearing animals 8 weeks after Adeno-Cre infection with bortezomib once a week for 4 weeks (FIG. 10A).

KP and KP^M cells = assay: Cleaved caspase 3 (CC3) immunoblot in lung adenocarcinoma cells; format: cell-based, mouse; conditions: KP cell lines, 10IJM Bay-117082, 48 hours
Protocol: (§2) FIG. 1. Bortezomib inhibits NF-κB signaling and induces apoptosis in murine lung adenocarcinoma cell lines. (1A) reduction of nuclear p65 level by bortezomib. Two KP (KrasLSL-G12D/wt;p53flox/flox) cell lines (KP1 and KP2) were treated with 5 nM bortezomib (BZ) or vehicle control (ctrl) for 24 hours. Nuclear (N) and cytoplasmic (C) fractions of protein lysates were immunoblotted with the indicated antibodies. NEMO and Parp serve as cytoplasmic and nuclear loading controls, respectively. (1B) quantitative PCR analysis of a subset of NF-κB target genes in 5 nM bortezomib (BZ)-treated KP cells at the indicated time points. Vehicle control is set to 1. (1C) apoptosis in KP and KP^M (KrasLSL-G12D/wt;p53R127H/−) cells induced by bortezomib. Cells were pre-treated with 5 nM bortezomib for 24 hours, and protein lysates were immunoblotted with CC3 and tubulin antibodies. (1D) quantification of cell death in bortezomib-treated cells. Cells were treated with the indicated concentrations of bortezomib for 24 hours, and dead cells were quantified by Trypan blue staining. Error bars are SD (n=3).
FIG. 17: Bay-117082 induces cell death In KP cells. […] (17B) Bay-117082 induces apoptosis in KP cells. Cells were treated with 10IJM Bay-117082 for 48 hours. Protein lysates were immunoblotted with cleaved caspase 3 (CC3) and Tubulin antibodies.
Cell pellets were lysed in Laemmli buffer. […]

IKK kinase activity = conditions: cited from earlier work
NF-κB target genes = assay: Quantitative PCR of NF-κB target genes in KP cells; format: cell-based, mouse
Protocol: as §2, §1
RNA was purified using TRIzol (Invitrogen), according to the manufacturer's instructions. One microgram of RNA was reverse transcribed using the High-Capacity cDNA Reverse Transcription Kit (Applied Biosystems). Real-time PCR (quantitative PCR) amplification was performed using Taqman probes (Applied Biosystems). Data were normalized to the Gapdh (mouse) or GAPDH (human) levels.

[2] = system: stress-activated protein kinases, p38 and JNK-1; conditions: cited from earlier work
Hmgsc2 mRNA = Hmgsc2 mRNA in bortezomib resistant cells; format: cell-based; conditions: vs control shRNA
Description: As shown in the data the control levels of Hmgsc2 are quite high in the control and low in the other samples.
The effects of Hmgsc2 expression in bortezomib resistant cells was examined to determine if Hmgsc2 would be a good therapeutic target for the treatment of NF-kB regulated lung cancers. […] As shown in the data the control levels of Hmgsc2 are quite high in the control and low in the other samples.

Row | Molecule | lung tumor signal in the initial phase ([1]; 50,000 luciferase-tagged KP cells, 10 mg/kg Bay-117082 i.p., 0-9 days) | lung tumor progression ([1]; orthotopic model, 10 mg/kg Bay-117082 i.p.) | tumor response under continuous treatment ([1]; orthotopic model, 42-63 days) | cell death (relative cell viability) (KP and KP^M cell lines) | survival (KP mice) | caspase 3 cleavage (KP and KP^M cells) | IKK kinase activity (IKK kinase activity) | Xiap inhibition, Bay-117082 compared with bortezomib (NF-κB target genes; KP cells in vitro, FIG. 1B and FIG. 7A) | expression of prosurvival NF-κB target genes such as Bcl2, Bclx1, Xiap (NF-κB target genes; KP cells, 10 μM Bay-117082, indicated hours) | effect on stress-activated protein kinases p38 and JNK-1 [2] | relative amount of Hmgsc2 mRNA (Hmgsc2 mRNA)
1 | Cc1ccc(S(=O)(=O)/C=C/C#N)cc1 [Bay-117082] | significantly reduced lung tumor signal | delayed lung tumor progression until 42 days | eventually became refractory to therapy | cell death | 120.2 ± 27.0 days | induced caspase 3 cleavage | inhibits | stronger | downregulates | stimulate | –
2 | insulin: positive control; represses Hmgcs2 | – | – | – | – | – | – | – | – | – | – | low

Reference: patent publication US20150150892A1, “METHODS AND PRODUCTS RELATED TO LUNG CANCER” (Massachusetts Institute of Technology, priority 2012, published 2015)
